The values that follow come from US5843481A, “Treatment of proliferative disorders, metastasaes, and drug resistant tumors with vanadate compounds and derivatives or analogues thereof” (priority 1994, dated 1998).

The subject of series [1] is non-proliferating chondrocytes. Description: Viability of non-proliferating chondrocytes (high cell density). The series is classed as cell-based, bovine. Conditions: 0-50 μM, 48 hours; FIG. 6. The protocol: (§1) As described in example 1, orthovanadate inhibited fos, jun and collagenase expression. If fos and jun expression are required for cellular proliferation, then orthovanadate should inhibit chondrocyte proliferation. In order to compare the effect of orthovanadate on non-proliferating and proliferating chondrocytes, chondrocytes were plated at both high cell density (2×10^6 to 4×10^6 cells/per well on a six well plate) (nonproliferating) and at a lower cell density (5×10^5 to 1×10^6 cells/per well on a six well plate) (proliferating) and then maintained for 48 hours. The cells were then incubated in media (HAMS F12) containing 0-50 μM Orthovanadate for an additional 48 hours. The cells were harvested and the number of viable cells determined.

Series [2] relates to MDAY-D2. Description: Liver metastases of MDAY-D2 cells in mice (histology), Example 8. It is filed as in vivo. An excerpt:
(§2) In order to examine the ability of vanadyl compounds to reduce tumor formation, growth and metastases, a specific animal model which allows investigation of all of these processes in the same animal was chosen. This model involves the injection of a metastatic haematopoietic cell line, MDAY-D2, into mice subcutaneously. These cells form a tumor at the site of injection and its size can be easily determined. In addition, these cells metastasize to the liver and metastases can be detected histologically after day 17 to 19. This model provides a very sensitive and reproducible approach to investigate the effect of vanadyl compounds on tumor growth and metastases.
Livers were removed from animals treated as described above and prepared for histological examination. FIG. 16 compares liver sections from untreated (C), orthovanadate (VO)(500 μg/day) and vanadyl sulphate (VS)(500 μg/day) treated animals. Nodules are identified with an arrow.

The test system of the next series is PLA2. The series can be described thus: 3H-arachidonic acid release by chondrocytes (PLA2 activity). It is filed as cell-based, bovine. Conditions: orthovanadate 100 uM. The method, then: (§3) Bovine articular chondrocytes were isolated and plated as previously described (Kandel R. A. et al. Biochim. Biophys. Acta. 1053, 130-134, 1990). In order to determine the effect of orthovanadate on IL 1 and PMA (phorbol ester) induced responses, chondrocytes were incubated with orthovanadate (100 μM) for 2 hours before stimulation with IL 1 (10 ng/ml) or PMA ([…]). collagenase production was determined by incubating chondrocytes for 24 hours with IL 1 or PMA and the cell conditioned medium was assayed for collagenase activity using an ELISA procedure as described previously (Kandel et al. supra) PLA2 activity was measured by incorporating ^3 H-arachidonic acid (^3 H-AA) into the cells and then incubating the cells with medium containing 1 mg/ml BSA, either alone or in the presence of IL 1 or PMA, for 10 min. as previously described (Conquer, J. A. […], Biochim. Biophys. Acta. 1134, 1-6). The amount of ^3 H-AA liberated into the supernatant was determined. To measure PGE2 production, chondrocytes were incubated for 6 hours in Ham's F12 medium, either alone or with IL 1 or PMA. The supernatant was analyzed by RIA using an antibody specific for PGE2 (Dr. S. A. Jones, Mount Sinai Hospital, Toronto, Can.). In order to examine the expression of c-fos and c-jun, chondrocytes were incubated for 1 hour in the presence of IL-1, PMA or AA (3 μM). […]

Another series concerns jun. Description: Northern blot analysis of jun mRNA expression in chondrocytes. It is filed as cell-based, bovine. An excerpt:
The cytokine interleukin 1 (IL 1) has been used to identify the intermediate second messengers which regulate the expression of fos and jun.
Although IL 1 stimulated superoxide production, it was not known whether IL 1 induced fos and jun expression was dependent on the production of superoxides. In order to elucidate this possibility, the effect of DPI on fos and jun mRNA levels induced by IL 1 was investigated. RNA from chondrocytes treated with IL 1 in the presence and absence of DPI were analyzed by Northern blot analysis using either fos or collagenase cDNA probes. […] Similar data has been obtained for IL 1 induced jun expression. Furthermore, inhibition of fos and jun expression by DPI was sufficient to suppress IL 1 induced and constitutive collagenase expression.
Bovine articular chondrocytes were isolated and plated as previously described (Kandel R. A. et al. Biochim. Biophys. Acta. 1053, 130-134, 1990). In order to determine the effect of orthovanadate on IL 1 and PMA (phorbol ester) induced responses, chondrocytes were incubated with orthovanadate (100 μM) for 2 hours before stimulation with IL 1 (10 ng/ml) or PMA ([…]). collagenase production was determined by incubating chondrocytes for 24 hours with IL 1 or PMA and the cell conditioned medium was assayed for collagenase activity using an ELISA procedure as described previously (Kandel et al. supra) PLA2 activity was measured by incorporating ^3 H-arachidonic acid (^3 H-AA) into the cells and then incubating the cells with medium containing 1 mg/ml BSA, either alone or in the presence of IL 1 or PMA, for 10 min. as previously described (Conquer, J. A. […], Biochim. Biophys. Acta. 1134, 1-6). The amount of ^3 H-AA liberated into the supernatant was determined. To measure PGE2 production, chondrocytes were incubated for 6 hours in Ham's F12 medium, either alone or with IL 1 or PMA. The supernatant was analyzed by RIA using an antibody specific for PGE2 (Dr. S. A. Jones, Mount Sinai Hospital, Toronto, Can.). In order to examine the expression of c-fos and c-jun, chondrocytes were incubated for 1 hour in the presence of IL-1, PMA or AA (3 μM). Chondrocytes were washed in PBS and the total RNA extracted as previously described (Cruz. et al, 1991, Biochem. J. 277, 327-330). RNA samples were run on formaldehyde agarose gels and transferred to nylon membrane for northern analysis using cDNA probes for c-fos and c-jun.

Series [3] has as its system proliferating chondrocytes. Description: Viability of proliferating chondrocytes (low cell density). The series is classed as cell-based, bovine. Conditions: 0-50 μM, 48 hours; FIG. 6. The protocol: as §1
The test system of another series is collagenase. The series can be described thus: Collagenase production by chondrocytes (ELISA of conditioned medium). It is filed as cell-based, bovine. To be noted: orthovanadate 100 uM, 2 hours before stimulation. The protocol: as §3
In series [4] the test system is MDAY-D2. The series can be described thus: MDAY-D2 tumor growth in mice, Example 6A. It is filed as in vivo.
Excerpt: as §2
Using the animal model described above, the effect of subcutaneous administration of orthovanadate on tumor growth was investigated. A total of 15 mice were injected subcutaneously with 1×10^5 MDAY-D2 cells on Day 1. On Day 5, small tumors could be observed at the site of injection. Five mice were injected daily with 50 μl of water alone and 10 mice were injected daily with water containing 10 mg/ml orthovanadate. On day 14, the mice were sacrificed. The tumors were removed from all the animals, photographed, and weighed. FIG. 11 compares sizes of tumors from two untreated and two orthovanadate treated mice. […] In animals treated with water alone, four mice had tumors weighing between 1.18 and 1.68 gms.

A further series has as its system PGE2. Description: PGE2 production by chondrocytes (RIA). Conditions: orthovanadate 100 uM. It is filed as cell-based, bovine. The protocol:
as §3

Series [5] in a line: Dose required to reach serum concentration highly toxic to cancer cells. Also on record: species or system animals. Conditions: in vivo.
Series [6] concerns MDAY-D2. The series can be described thus: MDAY-D2 tumor growth in mice, combination therapy, Example 7. The series is classed as in vivo. The protocol:
Twenty mice were injected subcutaneously with 2×10^5 cells on Day 1. At day 4, the mice were divided into four groups of five mice. Group one (control) received subcutaneous injections of 50 μl of water. Group two received daily intraperitoneal injections of 50 μl of 250 mM N-acetylcysteine. Group three received daily subcutaneous injections of 50 μl of 10 mg/ml of orthovanadate. Group four received daily intraperitoneal injections of 50 μl of […] N-acetylcysteine and 20 minutes later received 50 μl of subcutaneous injection of 50 μl of 10 mg/ml of orthovanadate. On day 10 the treatment was stopped. The animals were sacrificed on Day 13 and analyzed for tumor growth.

Series [7] deals with KB8, KB8-5 and KB85-11 cells. The series can be described thus: Viability of drug resistant ovarian cancer cell lines. It is filed as cell-based. An excerpt:
The effect of orthovanadate on three ovarian cancer cell lines, KB8, KB8-5 and KB85-11, which have increasing drug resistance, respectively, relative to the parent cell line, KB3-1 was compared. These drug resistant cell lines are not killed by several classes of chemotherapeutic agents such as colchicine, vinblastine and doxorubicin. […] The cells were harvested and the number of viable cells determined.

For `[O]=[V]([O-])([O-])[O-]` [orthovanadate], in series [1], the “toxicity to chondrocytes plated at high cell density (non-proliferating)” value is given as “did not effect”. For the same molecule, in the series on MDAY-D2 [2] (500 μg/day, FIG. 16), the “levels of metastases in liver” value was “did not have detectable levels of metastases”. Moreover, the “effectiveness at preventing metastases” value with MDAY-D2 [2] (preliminary results, liver histology) is “effective at preventing metastases”. In the series on PLA2, the “IL 1 or PMA induced release of 3H-AA” value is “did not inhibit”. Also, the “IL 1, PMA and AA induced c-jun expression” value in the series on jun (orthovanadate 100 μM, FIGS. 4 and 18) was “completely inhibited”. Besides, in the series with jun (summary statement), the “jun expression in response to factors such as IL 1 or arachidonic acid” value is “completely inhibit”. Also, the “toxicity to cells plated at low cell density (proliferating)” value in [3] is recorded as “toxic”. In addition, in the series on collagenase, the “collagenase production (IL 1 or PMA)” value was “completely inhibited”. For the same molecule, the “tumor size (five mice)” value with MDAY-D2 [4] (10 mg/ml s.c. daily, day 14, five of 10 mice) is reported as “less than 0.16 gms”. Moreover, in the series with MDAY-D2 [4] (10 mg/ml, 50 μl s.c. daily, day 14, of 10 mice, FIG. 12), the “mice without detectable tumors” value turned out to be 2 mice. Further, in the series with MDAY-D2 [4] (FIG. 11), the “tumor size of treated mice versus untreated” value is reported as “either undetectable or considerably smaller”. Besides, in the series on PGE2, the “production of PGE2 (IL 1 or PMA)” value was “did not inhibit”. For the same molecule, the “dose required to reach serum concentrations highly toxic to cancer cells” value in series [5] is “at least 0.2 mg/kg”. Also, the “animals that died during the experiment” value in the series with MDAY-D2 [6] (10 mg/ml s.c. daily, group of five mice) is “One orthovanadate treated animal died”. For the same molecule, in the series with MDAY-D2 [6] (day 13, FIG. 14, orthovanadate: of four mice, combination: of five), the “animals without detectable tumors” value is “two had no detectable tumors”. The “effectiveness in killing drug resistant cell lines” value in series [7] (0-50 μM, 48 hours, FIG. 10) was “equally effective”. In addition, the “cell death by three days of administration” value in series [7] (three days) is “most of the cells had died”.
